Results taken from the supplement of paper PMC10331698.
± gives the standard deviation of the averaged measurements.

Experiments:
Assay in all cases: LOEC (log10 uM (lowest observed effect concentration))
[1] = compound: O=C(O)C(F)(F)C(F)(F)C(F)(F)C(F)(F)C(F)(F)C(F)(F)C(F)(F)C(F)(F)Cl [9-Chloro-perfluorononanoic acid]
Description: (§1)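 BioMAP Diversity Plus panel in human primary cell co-cultures, 4 concentrations in duplicate blinded samples. Responses are log10 fold change versus DMSO control, processed with tcpl v2.1.0. A hit is called when responses at any concentration exceed the cutoff (the larger of 3*bmad or log10(1.2)); the lowest observed effect concentration (modl_ga, log10 uM) is reported for hits.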

[2] = compound: C=CC(=O)OCCC(F)(F)C(F)(F)C(F)(F)C(F)(F)F [2-(Perfluorobutyl)ethyl acrylate]
Description: as §1

[3] = compound: O=C(O)C(F)(F)OC(F)(F)C(F)(F)OC(F)(F)C(F)(F)C(F)(F)C(F)(F)F [Perfluoro-3,6-dioxadecanoic acid]
Description: as §1

Perfluorooctanamidine = compound: N=C(N)C(F)(F)C(F)(F)C(F)(F)C(F)(F)C(F)(F)C(F)(F)C(F)(F)F [Perfluorooctanamidine]
Description: as §1

[4] = compound: O=S(=O)(O)C(F)(F)C(F)(F)C(F)(F)C(F)(F)C(F)(F)C(F)(F)C(F)(F)C(F)(F)F [Potassium perfluorooctanesulfonate]
Description: as §1

[5] = compound: O=C(O)C(F)(F)C(F)(F)C(F)(F)C(F)(F)C(F)(F)C(F)(F)C(F)(F)C(F)(F)C(F)(F)C(F)(F)C(F)(F)C(F)(F)F [Perfluorotridecanoic acid]
Description: as §1

Azathioprine = compound: Cn1cnc([N+](=O)[O-])c1Sc1ncnc2[nH]cnc12 [Azathioprine]
Description: as §1

[6] = compound: O=S(=O)(O)C(F)(F)C(F)(F)C(F)(F)C(F)(F)C(F)(F)C(F)(F)C(F)(F)C(F)(F)F [Perfluorooctanesulfonic acid]
Description: as §1

MyoF SRB down
LOEC (log10 uM) [1]: 1.78

3C Thrombomodulin down
LOEC (log10 uM) [2]: 1.54 ± 0.34

KF3CT IP10 down
LOEC (log10 uM) [3]: 1.78
LOEC (log10 uM) [1]: 1.78

MyoF MMP1 up
LOEC (log10 uM) [1]: 1.78

IMphg SRB down
LOEC (log10 uM) [1]: 1.78

MyoF PAI1 down
LOEC (log10 uM) [1]: 1.78

BE3C MMP1 up
LOEC (log10 uM) [3]: 1.3
LOEC (log10 uM) (Perfluorooctanamidine): 1.78
LOEC (log10 uM) [4]: 0.573 ± 0.39

KF3CT IL1a down
LOEC (log10 uM) [1]: 1.78
LOEC (log10 uM) [5]: 1.22 ± 0.37

BF4T MMP1 down
LOEC (log10 uM) [1]: 1.78

BT PBMCCytotoxicity down
LOEC (log10 uM) [2]: 1.54 ± 0.34

IMphg MCP1 down
LOEC (log10 uM) [1]: 1.78

3C SRB down
LOEC (log10 uM) [3]: 1.78
LOEC (log10 uM) (Azathioprine): 1.48
LOEC (log10 uM) [1]: 1.78

LPS IL8 up
LOEC (log10 uM) [1]: 1.54 ± 0.34

BT xTNFa down
LOEC (log10 uM) (Azathioprine): 0.716 ± 0.34
LOEC (log10 uM) [2]: 1.3

CASM3C SAA up
LOEC (log10 uM) [5]: 0.477 ± 0.68

KF3CT PAI1 down
LOEC (log10 uM) [6]: 1.78
LOEC (log10 uM) [1]: 1.3
LOEC (log10 uM) [4]: 1.78

LPS MCSF up
LOEC (log10 uM) [1]: 1.78

CASM3C Proliferation down
LOEC (log10 uM) (Azathioprine): 1.48

BT PBMCCytotoxicity up
LOEC (log10 uM) [3]: 1.78
LOEC (log10 uM) [1]: 1.78

BE3C EGFR down
LOEC (log10 uM) [3]: 1.78
LOEC (log10 uM) [6]: 1.3
LOEC (log10 uM) [1]: 1.3
LOEC (log10 uM) [4]: 1.3

LPS VCAM1 down
LOEC (log10 uM) [3]: 1.78
LOEC (log10 uM) (Azathioprine): 1.22 ± 0.37
LOEC (log10 uM) [2]: 1.78
LOEC (log10 uM) (Perfluorooctanamidine): 1.78

MyoF CollagenI down
LOEC (log10 uM) [3]: 1.78
LOEC (log10 uM) [1]: 1.3
LOEC (log10 uM) [5]: 1.48

3C MCP1 down
LOEC (log10 uM) [1]: 1.78

BF4T VCAM1 down
LOEC (log10 uM) (Azathioprine): 1.48
LOEC (log10 uM) [1]: 1.3

BT sIgG down
LOEC (log10 uM) (Azathioprine): -0.0458
LOEC (log10 uM) [2]: 1.78

BE3C uPAR up
LOEC (log10 uM) [4]: 1.54 ± 0.34

BE3C MIG down
LOEC (log10 uM) [6]: 1.78
LOEC (log10 uM) [1]: 1.78

KF3CT TIMP2 down
LOEC (log10 uM) [1]: 1.78

MyoF VCAM1 down
LOEC (log10 uM) [1]: 1.54 ± 0.34

BF4T MMP3 up
LOEC (log10 uM) [3]: 1.3

hDFCGF MCP1 down
LOEC (log10 uM) [1]: 1.78

BT xIL6 down
LOEC (log10 uM) (Azathioprine): 1.48
LOEC (log10 uM) [2]: 1.78

BF4T MMP9 down
LOEC (log10 uM) [1]: 1.78

4H SRB down
LOEC (log10 uM) [1]: 1.78
LOEC (log10 uM) [5]: 1.22 ± 0.37

BE3C uPAR down
LOEC (log10 uM) [1]: 1.78

BF4T uPA down
LOEC (log10 uM) [1]: 1.78

hDFCGF ITAC down
LOEC (log10 uM) [3]: 1.54 ± 0.34
LOEC (log10 uM) (Azathioprine): 0.977 ± 0.71
LOEC (log10 uM) [2]: 1.07 ± 0.32
LOEC (log10 uM) [1]: 0.573 ± 0.39
LOEC (log10 uM) [5]: 0.239 ± 0.34
LOEC (log10 uM) [4]: 1.78

LPS Thrombomodulin up
LOEC (log10 uM) [1]: 1.78

KF3CT SRB down
LOEC (log10 uM) [1]: 1.78

BF4T IL1a down
LOEC (log10 uM) [1]: 1.78

BF4T PAI1 down
LOEC (log10 uM) [1]: 1.78

hDFCGF MIG down
LOEC (log10 uM) [3]: 1.54 ± 0.34
LOEC (log10 uM) [2]: 1.3
LOEC (log10 uM) [1]: 1.3
LOEC (log10 uM) [5]: 0.716 ± 0.34
LOEC (log10 uM) [4]: 1.78

SAg IL8 down
LOEC (log10 uM) (Azathioprine): 1.48
LOEC (log10 uM) [2]: 1.78
LOEC (log10 uM) [1]: 1.78

hDFCGF EGFR down
LOEC (log10 uM) [3]: 1.78

IMphg MCSF down
LOEC (log10 uM) (Azathioprine): 1.48

BE3C Keratin818 down
LOEC (log10 uM) [1]: 1.78

3C IL8 down
LOEC (log10 uM) [5]: 1.22 ± 0.37

hDFCGF SRB down
LOEC (log10 uM) [1]: 1.78

3C VCAM1 down
LOEC (log10 uM) [2]: 1.54 ± 0.34
LOEC (log10 uM) (Perfluorooctanamidine): 1.78
LOEC (log10 uM) [1]: 1.78
